Blank lines part the entries; values can stand above or below the molecule they belong to. Calls of active or inactive are those of the source. No cut-off for these calls is given here.
Experiments:
[1] = target: T1, Tyrosine-protein kinase BTK (Homo sapiens, UniProt Q06187); assay: Inhibition of recombinant full length His-tagged human BTK expressed in baculovirus expression system using poly (4:1 Glu, Tyr) as substrate preincubated for 1 hr followed by substrate addition measured after 1 hr by ADP-glo assay
[2] = Antiproliferative activity against mouse BA/F3 cells after 72 hrs by CellTiter-Glo assay; type: cell-based, BaF3
[3] = target: Tyrosine-protein kinase JAK1 (Homo sapiens) (UniProt P23458); assay: Inhibition of TEL-fused JAK1 (unknown origin) expressed in mouse BA/F3 cells after 72 hrs by CellTiter-Glo assay; type: cell-based
HCT-116 = assay: Antiproliferative activity against human HCT116 cells after 72 hrs by CellTiter-Glo assay; type: functional; details: HCT-116, 72 h
A549 = assay: Antiproliferative activity against human A549 cells after 72 hrs by CellTiter-Glo assay; type: functional; details: A549, 72 h
HeLa = assay: Antiproliferative activity against human HeLa cells after 72 hrs by CellTiter-Glo assay; type: functional
DU-145 = assay: Antiproliferative activity against human DU145 cells after 72 hrs by CellTiter-Glo assay; type: functional; details: DU-145, 72 h
[4] = Antiproliferative activity against human RV1 cells after 72 hrs by CellTiter-Glo assay; type: functional; details: RV-1, 72 h
LNCaP C4-2 = assay: Antiproliferative activity against human C4-2 cells after 72 hrs by CellTiter-Glo assay; type: functional; details: LNCaP C4-2, 72 h
Pfeiffer [5] = assay: Antiproliferative activity against human Pfeiffer cells after 72 hrs by CellTiter-Glo assay; type: functional
NAMALVA = assay: Antiproliferative activity against human NAMALWA cells after 72 hrs by CellTiter-Glo assay; type: functional
NALM-6 = assay: Antiproliferative activity against human NALM6 cells after 72 hrs by CellTiter-Glo assay; type: functional; details: NALM-6, 72 h
U-937 = assay: Antiproliferative activity against human U937 cells after 72 hrs by CellTiter-Glo assay; type: functional; details: U-937, 72 h
CMK = assay: Antiproliferative activity against human CMK cells after 72 hrs by CellTiter-Glo assay; type: functional
Rec1 = assay: Antiproliferative activity against human Rec1 cells after 72 hrs by CellTiter-Glo assay; type: functional; details: Rec1, 72 h
JVM-2 = assay: Antiproliferative activity against human JVM2 cells after 72 hrs by CellTiter-Glo assay; type: functional; details: JVM-2, 72 h
cells [6] = type: functional; details: Homo sapiens, CLL cell, 72 h
cells [7] = type: functional; details: Homo sapiens, CLL cell, 72 h; remark: listed apart in the source
cells [8] = type: functional; details: Homo sapiens, CLL cell, 72 h; remark: listed apart in the source
[9] = target: Cytoplasmic tyrosine-protein kinase BMX (Homo sapiens, UniProt P51813); assay: Inhibition of recombinant full length His-tagged human BMX expressed in baculovirus expression system using poly (4:1 Glu, Tyr) as substrate preincubated for 1 hr followed by substrate addition measured after 1 hr by ADP-glo assay
[10] = target: Tyrosine-protein kinase Blk (Homo sapiens, UniProt P51451); assay: Inhibition of recombinant full length His-tagged human BLK expressed in baculovirus expression system using poly (4:1 Glu, Tyr) as substrate preincubated for 1 hr followed by substrate addition measured after 1 hr by ADP-glo assay
[11] = target: T1, Tyrosine-protein kinase BTK; assay: Irreversible binding affinity to recombinant full length His-tagged human BTK expressed in baculovirus expression system assessed as modification of Cys481 residue containing fragment at 100 uM after 1 hr by LC/MS-MS method
[12] = target: T1, Tyrosine-protein kinase BTK; assay: Irreversible inhibition of recombinant full length His-tagged human BTK expressed in baculovirus expression system using poly (4:1 Glu, Tyr) as substrate preincubated for 2 to 60 mins followed by substrate addition measured after 1 hr by ADP-glo assay
[13] = target: T1, Tyrosine-protein kinase BTK; assay: Irreversible inhibition of recombinant full length His-tagged human BTK expressed in baculovirus expression system using poly (4:1 Glu, Tyr) as substrate assessed as ratio of Kinact to Ki preincubated for 2 to 60 mins followed by substrate addition measured after 1 hr by ADP-glo assay
[14] = target: T1, Tyrosine-protein kinase BTK; assay: Inhibition of BTK autophosphorylation at Y223 in anti-IgM stimulated human MOLM13 cells after 4 hrs by chemiluminescence assay
[15] = target: T1, Tyrosine-protein kinase BTK; assay: Inhibition of BTK autophosphorylation at Y223 in anti-IgM stimulated human Ramos cells after 4 hrs by chemiluminescence assay; type: cell-based
[16] = target: T1, Tyrosine-protein kinase BTK; assay: Inhibition of BTK autophosphorylation at Y223 in anti-IgM stimulated human Pfeiffer cells after 4 hrs by chemiluminescence assay; type: cell-based
[17] = target: T1, Tyrosine-protein kinase BTK; assay: Inhibition of BTK transphosphorylation at Y551 in anti-IgM stimulated human MOLM13 cells at 100 to 1000 nM after 4 hrs by chemiluminescence assay
[18] = target: T1, Tyrosine-protein kinase BTK; assay: Inhibition of BTK transphosphorylation at Y551 in anti-IgM stimulated human Ramos cells at 100 to 1000 nM after 4 hrs by chemiluminescence assay; type: cell-based
[19] = target: T1, Tyrosine-protein kinase BTK; assay: Inhibition of BTK transphosphorylation at Y551 in anti-IgM stimulated human Pfeiffer cells at 100 to 1000 nM after 4 hrs by chemiluminescence assay; type: cell-based
[20] = target: T1, Tyrosine-protein kinase BTK; assay: Inhibition of BTK in anti-IgM stimulated human Ramos cells assessed as decrease in PLCgamma2 phosphorylation at Y1217 after 4 hrs by chemiluminescence assay; type: cell-based
[21] = target: T1, Tyrosine-protein kinase BTK; assay: Inhibition of BTK in anti-IgM stimulated human Pfeiffer cells assessed as decrease in PLCgamma2 phosphorylation at Y1217 at 100 to 1000 nM after 4 hrs by chemiluminescence assay; type: cell-based
Ramos [22] = assay: Cell cycle arrest in human Ramos cells assessed as accumulation at G0/G1 phase up to 10 uM after 48 hrs by propidium iodide staining-based flow cytometric method; type: functional
Pfeiffer [23] = assay: Cell cycle arrest in human Pfeiffer cells assessed as accumulation at G0/G1 phase up to 10 uM after 48 hrs by propidium iodide staining-based flow cytometric method; type: functional
MOLM-13 [24] = assay: Cell cycle arrest in human MOLM13 cells assessed as accumulation at G0/G1 phase up to 10 uM after 48 hrs by propidium iodide staining-based flow cytometric method; type: functional
Ramos [25] = assay: Induction of apoptosis in human Ramos cells assessed as caspase-3 cleavage up to 10 uM after 48 hrs by immunoblot method; type: functional, cell-based
MOLM-13 [26] = assay: Induction of apoptosis in human MOLM13 cells assessed as PARP cleavage up to 10 uM after 48 hrs by immunoblot method; type: functional, cell-based
MOLM-13 [27] = assay: Induction of apoptosis in human MOLM13 cells assessed as caspase-3 cleavage up to 10 uM after 48 hrs by immunoblot method; type: functional, cell-based
Pfeiffer [28] = assay: Induction of apoptosis in human Pfeiffer cells assessed as PARP cleavage up to 10 uM after 48 hrs by immunoblot method; type: functional, cell-based
Pfeiffer [29] = assay: Induction of apoptosis in human Pfeiffer cells assessed as caspase-3 cleavage up to 10 uM after 48 hrs by immunoblot method; type: functional, cell-based

T1 sequence (Q06187 whole entry): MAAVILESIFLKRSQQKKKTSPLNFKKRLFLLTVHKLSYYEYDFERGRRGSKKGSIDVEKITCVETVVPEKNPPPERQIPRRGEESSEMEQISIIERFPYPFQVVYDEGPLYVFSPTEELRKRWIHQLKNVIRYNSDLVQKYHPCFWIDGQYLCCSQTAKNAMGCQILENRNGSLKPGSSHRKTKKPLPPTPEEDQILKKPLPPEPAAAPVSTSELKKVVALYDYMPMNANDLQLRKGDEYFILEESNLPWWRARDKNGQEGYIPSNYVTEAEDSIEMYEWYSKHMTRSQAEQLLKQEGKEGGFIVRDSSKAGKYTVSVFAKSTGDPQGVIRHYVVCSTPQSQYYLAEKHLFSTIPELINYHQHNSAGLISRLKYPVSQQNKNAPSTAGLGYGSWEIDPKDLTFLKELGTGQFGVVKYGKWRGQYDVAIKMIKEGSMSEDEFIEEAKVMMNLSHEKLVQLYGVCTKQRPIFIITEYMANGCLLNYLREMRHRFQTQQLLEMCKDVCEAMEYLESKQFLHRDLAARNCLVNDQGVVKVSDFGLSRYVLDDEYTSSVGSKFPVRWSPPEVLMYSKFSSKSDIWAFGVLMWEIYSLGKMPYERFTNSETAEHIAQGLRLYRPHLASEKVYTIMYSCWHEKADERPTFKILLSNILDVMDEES
Chain of Tyrosine-protein kinase JAK1 (Homo sapiens) (P23458 whole entry, the tested form may be a part): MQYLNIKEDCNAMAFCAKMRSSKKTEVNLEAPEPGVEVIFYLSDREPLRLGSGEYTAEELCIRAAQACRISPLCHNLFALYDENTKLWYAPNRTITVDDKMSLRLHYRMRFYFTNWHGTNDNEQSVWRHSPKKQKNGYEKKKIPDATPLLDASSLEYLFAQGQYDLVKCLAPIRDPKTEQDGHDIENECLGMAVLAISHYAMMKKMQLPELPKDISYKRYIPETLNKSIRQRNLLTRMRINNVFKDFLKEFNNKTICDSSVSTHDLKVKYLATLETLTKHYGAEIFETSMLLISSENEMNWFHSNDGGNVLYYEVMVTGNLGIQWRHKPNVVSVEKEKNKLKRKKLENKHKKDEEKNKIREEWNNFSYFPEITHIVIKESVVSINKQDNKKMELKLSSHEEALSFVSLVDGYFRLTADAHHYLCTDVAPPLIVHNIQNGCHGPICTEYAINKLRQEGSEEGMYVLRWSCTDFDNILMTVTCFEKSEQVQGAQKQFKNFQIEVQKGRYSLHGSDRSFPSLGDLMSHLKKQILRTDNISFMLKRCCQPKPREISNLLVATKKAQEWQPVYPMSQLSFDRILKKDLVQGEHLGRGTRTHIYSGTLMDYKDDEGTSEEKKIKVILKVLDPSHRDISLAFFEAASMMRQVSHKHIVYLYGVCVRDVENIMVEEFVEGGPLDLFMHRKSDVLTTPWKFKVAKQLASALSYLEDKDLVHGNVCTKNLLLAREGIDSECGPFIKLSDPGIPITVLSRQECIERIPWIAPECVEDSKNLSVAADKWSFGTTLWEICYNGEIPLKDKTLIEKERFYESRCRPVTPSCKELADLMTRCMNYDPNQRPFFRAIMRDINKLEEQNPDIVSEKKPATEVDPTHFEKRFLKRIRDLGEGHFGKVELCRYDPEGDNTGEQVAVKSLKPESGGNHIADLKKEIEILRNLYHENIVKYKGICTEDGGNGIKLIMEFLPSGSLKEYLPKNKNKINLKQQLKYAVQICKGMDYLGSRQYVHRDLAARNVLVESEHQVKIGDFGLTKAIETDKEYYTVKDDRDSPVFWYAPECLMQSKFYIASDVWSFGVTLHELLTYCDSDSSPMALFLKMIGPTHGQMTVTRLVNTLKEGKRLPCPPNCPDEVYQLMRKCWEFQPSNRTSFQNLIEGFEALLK
Chain of Tyrosine-protein kinase Blk (P51451 whole entry, the tested form may be a part): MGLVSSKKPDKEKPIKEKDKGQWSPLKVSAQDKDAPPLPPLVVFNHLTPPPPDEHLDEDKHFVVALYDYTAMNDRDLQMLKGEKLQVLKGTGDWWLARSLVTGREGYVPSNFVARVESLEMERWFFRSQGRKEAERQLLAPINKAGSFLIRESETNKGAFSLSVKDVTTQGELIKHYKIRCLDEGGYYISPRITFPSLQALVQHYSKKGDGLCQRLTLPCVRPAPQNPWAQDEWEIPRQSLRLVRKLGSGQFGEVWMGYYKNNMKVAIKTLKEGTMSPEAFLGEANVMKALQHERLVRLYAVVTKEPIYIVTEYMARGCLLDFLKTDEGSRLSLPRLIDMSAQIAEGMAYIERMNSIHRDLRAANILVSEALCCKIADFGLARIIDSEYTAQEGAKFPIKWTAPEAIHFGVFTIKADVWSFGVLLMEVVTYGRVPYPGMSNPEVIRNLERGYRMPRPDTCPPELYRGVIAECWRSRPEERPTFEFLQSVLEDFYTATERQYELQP
Chain of Cytoplasmic tyrosine-protein kinase BMX (P51813 whole entry): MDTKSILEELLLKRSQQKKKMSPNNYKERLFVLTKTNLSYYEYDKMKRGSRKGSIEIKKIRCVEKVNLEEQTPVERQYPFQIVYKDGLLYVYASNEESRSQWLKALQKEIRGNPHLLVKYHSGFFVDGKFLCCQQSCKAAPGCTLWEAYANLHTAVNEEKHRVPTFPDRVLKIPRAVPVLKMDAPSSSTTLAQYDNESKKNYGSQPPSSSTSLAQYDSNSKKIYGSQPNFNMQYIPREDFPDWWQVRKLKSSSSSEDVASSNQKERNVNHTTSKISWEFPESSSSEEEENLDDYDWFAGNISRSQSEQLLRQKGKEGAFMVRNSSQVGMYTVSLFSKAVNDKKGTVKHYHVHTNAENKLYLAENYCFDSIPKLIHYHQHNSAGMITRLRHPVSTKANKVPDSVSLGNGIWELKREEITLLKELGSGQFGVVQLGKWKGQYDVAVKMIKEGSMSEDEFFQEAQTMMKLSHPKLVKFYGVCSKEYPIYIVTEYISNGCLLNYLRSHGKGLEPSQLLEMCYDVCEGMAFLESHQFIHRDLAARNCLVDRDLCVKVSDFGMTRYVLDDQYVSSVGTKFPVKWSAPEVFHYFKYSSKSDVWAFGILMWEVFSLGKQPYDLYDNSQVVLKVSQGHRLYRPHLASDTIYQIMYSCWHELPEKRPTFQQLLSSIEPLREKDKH

IC50 [1]: 6.87 µM
GI50 [3]: > 10 µM
GI50 (HCT-116): > 10 µM
GI50 (A549): > 10 µM
GI50 (HeLa): > 10 µM
GI50 (DU-145): > 10 µM
GI50 (LNCaP C4-2): > 10 µM
GI50 (U-937): > 10 µM
SMILES: CCC(=O)Nc1cc(-n2c(=O)ccc3cnc4ccc(-n5cccn5)cc4c32)ccc1C
GI50 at 72 h [2]: > 10 µM
GI50 [4]: > 10 µM
GI50 (Pfeiffer [5]): > 10 µM
GI50 (NAMALVA): > 10 µM
GI50 (NALM-6): > 10 µM
GI50 (CMK): > 10 µM
GI50 (Rec1): > 10 µM
GI50 (JVM-2): > 10 µM
GI50 (cells [6]): > 10 µM
GI50 (cells [7]): > 10 µM
GI50 (cells [8]): > 10 µM

IC50 [9]: 0.083 µM
IC50 [10]: > 10 µM
Activity [11]: Active
Ki [12]: 0.097 µM
Kinact [12]: 0.07 min⁻¹
Ratio [13]: 0.01 µM⁻¹ s⁻¹
GI50 [3]: 2.67 µM
GI50 (HCT-116): > 10 µM
GI50 (A549): 3.7 µM
GI50 (HeLa): > 10 µM
GI50 (DU-145): > 10 µM
GI50 (LNCaP C4-2): > 10 µM
GI50 (U-937): > 10 µM
EC50 [14]: < 0.1 µM
EC50 [15]: < 0.1 µM
EC50 [16]: < 3 µM
inhibition [17]: inactive
inhibition [18]: inactive
inhibition [19]: inactive
EC50 [20]: < 1 µM
inhibition [21]: inactive
SMILES: C=CC(=O)Nc1cc(-n2c(=O)ccc3cnc4ccc(-n5cccn5)cc4c32)ccc1C
GI50 at 72 h [2]: > 10 µM
GI50 [4]: > 10 µM
GI50 (Pfeiffer [5]): 5.8 µM
GI50 (NAMALVA): 4.5 µM
GI50 (NALM-6): 1.17 µM
GI50 (CMK): 4.3 µM
GI50 (Rec1): 1.6 µM
GI50 (JVM-2): 3.4 µM
GI50 (cells [6]): 10.3 µM
GI50 (cells [7]): 2.4 µM
GI50 (cells [8]): 2.9 µM
Activity (Ramos [22]): Active
Activity (Pfeiffer [23]): Active
Activity (MOLM-13 [24]): Active
Activity (Ramos [25]): Active
Activity (MOLM-13 [26]): Active
Activity (MOLM-13 [27]): Active
Activity (Pfeiffer [28]): Active
Activity (Pfeiffer [29]): Active

From ChEMBL document CHEMBL4130348, “Structure-activity relationship investigation for benzonaphthyridinone derivatives as novel potent Bruton's tyrosine kinase (BTK) irreversible inhibitors” (Eur J Med Chem, 2017)
